Assay results published in PubChem BioAssay (NCI).
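Method: 48-hour compound exposure of cells in 96-well plates, five concentrations, linear interpolation of endpoints. TGI: total growth inhibition.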

Legend:
Experiment in all cases: NCI tumour cell line growth inhibition, 48 h
[1] = test system: SK-OV-3 ovarian
[2] = test system: UACC-257 melanoma
[3] = test system: A498 renal
[4] = test system: LOX IMVI melanoma
[5] = test system: OVCAR-5 ovarian
[6] = test system: DMS 273 small cell lung
[7] = test system: DLD-1 colon
[8] = test system: OVCAR-8 ovarian
[9] = test system: OVCAR-3 ovarian
[10] = test system: UACC-62 melanoma
[11] = test system: MALME-3M melanoma
[12] = test system: SF-539 CNS
[13] = test system: EKVX NSCLC
[14] = test system: MOLT-4 leukemia
[15] = test system: NCI-H460 lung
[16] = test system: MCF7 breast
[17] = test system: SK-MEL-2 melanoma
[18] = test system: IGROV1 ovarian
[19] = test system: SK-MEL-5 melanoma
[20] = test system: HCT-116 colon
[21] = test system: COLO 205 colon
[22] = test system: RPMI-8226 leukemia
[23] = test system: NCI-H23 lung
[24] = test system: NCI/ADR-RES ovarian
[25] = test system: K-562 leukemia
[26] = test system: XF 498 CNS
[27] = test system: OVCAR-4 ovarian
[28] = test system: NCI-H226 lung
[29] = test system: HCC-2998 colon
[30] = test system: TK-10 renal
[31] = test system: RXF 393 renal
[32] = test system: HS 578T breast
[33] = test system: CCRF-CEM leukemia
[34] = test system: ACHN renal
[35] = test system: BT-549 breast
[36] = test system: NCI-H522 lung
[37] = test system: SK-MEL-28 melanoma
[38] = test system: RXF-631 renal
[39] = test system: MDA-MB-435
[40] = test system: SF-268 CNS
[41] = test system: MDA-N
[42] = test system: SW-620 colon
[43] = test system: U251 CNS
[44] = test system: CAKI-1 renal
[45] = test system: HOP-18 NSCLC
[46] = test system: 786-0 renal
[47] = test system: HOP-92 NSCLC
[48] = test system: HCT-15 colon
[49] = test system: DMS 114 small cell lung
[50] = test system: MDA-MB-231 breast
[51] = test system: A549 NSCLC
[52] = test system: M19-MEL melanoma
[53] = test system: HOP-62 NSCLC
[54] = test system: DU-145 prostate
[55] = test system: SN12C renal
[56] = test system: UO-31 renal
[57] = test system: KM12 colon
[58] = test system: SF-295 CNS
[59] = test system: M14 melanoma
[60] = test system: KM20L2 colon
[61] = test system: SNB-19 CNS
[62] = test system: HT29 colon
[63] = test system: T-47D breast
[64] = test system: PC-3 prostate
[65] = test system: SNB-78 CNS
[66] = test system: LXFL 529 NSCLC
[67] = test system: HL-60(TB) leukemia
[68] = test system: SR leukemia
[69] = test system: SNB-75 CNS

CCOC(=O)C(=O)N=Nc1nc2c(O)c3ccccc3c(O)c2s1
TGI [1]: 34.4 µM | TGI [2]: 3.75 µM | TGI [3]: 38.2 µM | TGI [4]: 3.88 µM | TGI [5]: 16.1 µM | TGI [6]: 9.2 µM | TGI [7]: 10.2 µM | TGI [8]: 5.12 µM | TGI [9]: 4.07 µM | TGI [10]: 11.5 µM | TGI [11]: 3.48 µM | TGI [12]: 5.13 µM | TGI [13]: 19.4 µM | TGI [14]: > 100 µM | TGI [15]: 26.7 µM | TGI [16]: 30.4 µM | TGI [17]: 8.98 µM | TGI [18]: 14.6 µM | TGI [19]: 3.62 µM | TGI [20]: 5.96 µM | TGI [21]: 25.2 µM | TGI [22]: > 19.9 µM | TGI [23]: 4.91 µM | TGI [24]: 4.89 µM | TGI [25]: 12.7 µM | TGI [26]: 4.46 µM | TGI [27]: 3.64 µM | TGI [28]: 30.2 µM | TGI [29]: 28.6 µM | TGI [30]: 39.6 µM | TGI [31]: 9.55 µM | TGI [32]: 10.5 µM | TGI [33]: > 100 µM | TGI [34]: 6.74 µM | TGI [35]: 22.9 µM | TGI [36]: 8.79 µM | TGI [37]: 6.38 µM | TGI [38]: 39.9 µM | TGI [39]: 3.15 µM | TGI [40]: 10.8 µM | TGI [41]: 3.2 µM | TGI [42]: 5.7 µM | TGI [43]: 14.1 µM | TGI [44]: 35.6 µM | TGI [45]: 7.06 µM | TGI [46]: 22.8 µM | TGI [47]: 23.1 µM | TGI [48]: 6.49 µM | TGI [49]: 3.39 µM | TGI [50]: 12.7 µM | TGI [51]: 17.6 µM | TGI [52]: 1.27 µM | TGI [53]: 24.7 µM | TGI [54]: 31.6 µM | TGI [55]: 3.46 µM | TGI [56]: 6.12 µM | TGI [57]: 20.8 µM | TGI [58]: 12.3 µM | TGI [59]: 4.7 µM | TGI [60]: 32.1 µM | TGI [61]: 28.9 µM | TGI [62]: 35 µM | TGI [63]: 35.8 µM | TGI [64]: 27.1 µM | TGI [65]: 8.48 µM | TGI [66]: 3.3 µM | TGI [67]: > 100 µM | TGI [68]: > 100 µM | TGI [69]: 9.02 µM
